This passage reports EC50 results from patent US20250129070A1, “BIFUNCTIONAL ANDROGEN RECEPTOR COMPOUNDS” (priority 2023, published 2025).

This assay deals with AR / CBP ternary complex. The assay can be described thus: Ternary complex formation assay (sandwich ELISA, AR capture / CBP detection) in VCaP cell lysates. The class given is cell-based. Particulars: 1.5 hours treatment, sandwich ELISA (AR capture, CBP or p300 detection). On the procedure: Preparation of Mouse Anti-AR Antibody Coated 96 Well Plates
Black MaxiSorp plates: coat with 50 μL of mouse 1/50 diluted AR antibody (Monoclonal Antibody (AR 441 from Thermo Fisher); diluted in phosphate buffered saline (PBS). Spin the liquid to the bottom of the wells, if necessary. Incubate overnight at 4° C. Next day, wash 3 times with 200 μL of TBST. Block with 200 μL of blocking buffer (5% BSA in TBST) at room temperature for 2 hours (BSA: A4503 or A2153 from Sigma). Wash plates 3 times with TBST. Plates are ready for lysates Preparation of dimerizer treated lysates
Culture cells in 96 wells at 50K VCaP cells/well for at least 3 days. Plate in 5% Omega charcoal stripped FBS in total volume of 200 uL. Treat with bifunctional for 1.5 hours by adding 1 μL of 200× stock in DMSO. Aspirate media/compound. Add and pipet-to-mix 70 μL of 1× AlphaLisa Lysis Buffer to each well (Perkin Elmer, AlphaLISA SureFire Ultra, diluted in water). Pipet up and down when adding lysis buffer to disrupt cells. Let lysis proceed for 30 min at 4° C.
Incubate for 1 hour at room temperature. Flick out the lysates. Wash 3 times with TBST. Add 75 μL of rabbit CBP or p300 antibody to each well (diluted 1:5000 in blocking buffer (5% BSA in TBST). CBP antibody: (D6C5) Rabbit mAb #7389; p300 antibody: (D8Z4E) Rabbit mAb #86377. Incubate overnight at 4° C. Wash 3 times with 300 uL TBST, each time on shaker for 5-10 min. Prepare goat anti-rabbit antibody conjugated to HRP (1/100K dilution in blocking buffer) Invitrogen Catalog number: 32260. Add 75 μL of HRP-conjugated goat anti-rabbit antibody. Incubate at room temperature for 1 hour. Flick out the HRP-antibody mixture. Wash 7-8 times with TBST, each time on shaker for 10 min. Later washes try to overflow the wells so that no residual HRP remains bound to the sides of the well. Prepare and add 75 uL/well of QuantaRed Enhance Chemifluorescent HRP Substrate solution. Immediately read fluorescence on BMG ClarioStar (ex: 570/em 585), and repeat the read in 5 minutes and 15 minutes.
On the technique in general: An ELISA detects its analyte on a solid surface through an enzyme-linked reagent.
In general, EC50 refers to the midpoint of the concentration-response curve. A low value points to higher potency in that assay. With `COc1cc(OC2C(C)(C)C(NC(=O)c3ccc(N4CCC(C5CCC(n6nc(N7CCCc8cc(-c9cnn(C)c9)c(C(F)F)cc87)c7c6CCN(C(C)=O)C7)CC5)CC4)cc3)C2(C)C)ccc1C#N` (centres unmarked) [Compound 259, 4-[4-[4-[5-acetyl-3-[7-(difluoromethyl)-6-(1-methylpyrazol-4-yl)-3,4-dihydro-2H-quinolin-1-yl]-6,7-dihydro-4H-pyrazolo[4,3-c]pyridin-1-yl]cyclohexyl]-1-piperidyl]-N-[3-(4-cyano-3-methoxy-phenoxy)-2,2,4,4-tetramethyl-cyclobutyl]benzamide], the EC50 was in the range of 1 to 10 nM. As to `CC(=O)N1CCc2c(c(-c3cccc4cc(-c5ccc(CC6CCN(c7ncc(C(=O)NC8C(C)(C)C(Oc9ccc(C#N)c(Cl)c9)C8(C)C)cn7)CC6)nc5)ncc34)nn2C2CCOCC2)C1` (centres unmarked) [Compound 140, 2-[4-[[5-[8-(5-acetyl-1-tetrahydropyran-4-yl-6,7-dihydro-4H-pyrazolo[4,3-c]pyridin-3-yl)-3-isoquinolyl]-2-pyridyl]methyl]-1-piperidyl]-N-[3-(3-chloro-4-cyano-phenoxy)-2,2,4,4-tetramethyl-cyclobutyl]pyrimidine-5-carboxamide], the half-maximal effective concentration (EC50) was below 1 nM. As to `CC(=O)N1CCc2c(c(N3CCCc4cc(-c5cnn(C)c5)c(C(F)F)cc43)nn2C2CCN(C(C)C3CCN(c4ncc(C(=O)NC5C(C)(C)C(Oc6ccc(C#N)c(Cl)c6)C5(C)C)cn4)CC3)CC2)C1` (centres unmarked) [Compound 113, 2-[4-[1-[4-[5-acetyl-3-[7-(difluoromethyl)-6-(1-methylpyrazol-4-yl)-3,4-dihydro-2H-quinolin-1-yl]-6,7-dihydro-4H-pyrazolo[4,3-c]pyridin-1-yl]-1-piperidyl]ethyl]-1-piperidyl]-N-[3-(3-chloro-4-cyano-phenoxy)-2,2,4,4-tetramethyl-cyclobutyl]pyrimidine-5-carboxamide], the EC50 is below 1 nM.

`CC(=O)N1CCc2c(c(-c3cccc4cc(-c5ccc(COCC6CCN(c7ncc(C(=O)NC8C(C)(C)C(Oc9ccc(C#N)c(Cl)c9)C8(C)C)cn7)CC6)nc5)ncc34)nn2C2CCOCC2)C1` (centres unmarked) [Compound 143, 2-[4-[[5-[8-(5-acetyl-1-tetrahydropyran-4-yl-6,7-dihydro-4H-pyrazolo[4,3-c]pyridin-3-yl)-3-isoquinolyl]-2-pyridyl]methoxymethyl]-1-piperidyl]-N-[3-(3-chloro-4-cyano-phenoxy)-2,2,4,4-tetramethyl-cyclobutyl]pyrimidine-5-carboxamide] showed a 50% effective concentration (EC50) below 1 nM. `CC(=O)N1CCc2c(c(-c3cccc4cc(-c5ccc(C(=O)N6CCC(OCc7ncc(C(=O)NC8C(C)(C)C(Oc9ccc(C#N)c(Cl)c9)C8(C)C)cn7)C6)nc5)ncc34)nn2C2CCOCC2)C1` (racemic) [Compound 131, N-[3-(3-chloro-4-cyano-phenoxy)-2,2,4,4-tetramethyl-cyclobutyl]-2-[[rac-(3S)-1-[5-[8-(5-acetyl-1-tetrahydropyran-4-yl-6,7-dihydro-4H-pyrazolo[4,3-c]pyridin-3-yl)-3-isoquinolyl]pyridine-2-carbonyl]pyrrolidin-3-yl]oxymethyl]pyrimidine-5-carboxamide]: the EC50 is below 1 nM. `COc1cc(OC2C(C)(C)C(NC(=O)c3ccc(N4CCC(N(C)C5CCC(n6nc(N7CCCc8cc(-c9cnn(C)c9)c(C(F)F)cc87)c7c6CCN(C(C)=O)C7)CC5)CC4)cc3)C2(C)C)ccc1C#N` (centres unmarked) [Compound 280, 4-[4-[[4-[5-acetyl-3-[7-(difluoromethyl)-6-(1-methylpyrazol-4-yl)-3,4-dihydro-2H-quinolin-1-yl]-6,7-dihydro-4H-pyrazolo[4,3-c]pyridin-1-yl]cyclohexyl]-methyl-amino]-1-piperidyl]-N-[3-(4-cyano-3-methoxy-phenoxy)-2,2,4,4-tetramethyl-cyclobutyl]benzamide] came in with an EC50 below 1 nM. Molecule `COc1cc(O[C@H]2C(C)(C)[C@H](NC(=O)c3ccc(N4CCN(C5CN(c6ccc(-c7cc8c(cc7C(F)F)N(c7nn(C9CCOCC9)c9c7CN(C(C)=O)CC9)CCC8)cn6)C5)CC4)cc3)C2(C)C)ccc1C#N` [Compound 326, 4-(4-(1-(5-(1-(5-acetyl-1-(tetrahydro-2H-pyran-4-yl)-4,5,6,7-tetrahydro-1H-pyrazolo[4,3-c]pyridin-3-yl)-7-(difluoromethyl)-1,2,3,4-tetrahydroquinolin-6-yl)pyridin-2-yl)azetidin-3-yl)piperazin-1-yl)-N-((1r,3r)-3-(4-cyano-3-methoxyphenoxy)-2,2,4,4-tetramethylcyclobutyl)benzamide] registered an EC50 below 1 nM. In turn, `CC(=O)N1CCc2c(c(N3CCCc4cc(-c5cnco5)c(C(F)F)cc43)nn2C2CCN(CC3C(C)CN(c4ncc(C(=O)NC5C(C)(C)C(Oc6ccc(C#N)c(Cl)c6)C5(C)C)cn4)CC3C)CC2)C1` (centres unmarked) [Compound 424, 2-[4-[[4-[5-acetyl-3-[7-(difluoromethyl)-6-oxazol-5-yl-3,4-dihydro-2H-quinolin-1-yl]-6,7-dihydro-4H-pyrazolo[4,3-c]pyridin-1-yl]-1-piperidyl]methyl]-3,5-dimethyl-1-piperidyl]-N-[3-(3-chloro-4-cyano-phenoxy)-2,2,4,4-tetramethyl-cyclobutyl]pyrimidine-5-carboxamide] returned an EC50 below 1 nM. For `COc1cc(OC2C(C)(C)C(NC(=O)c3ccc(N4CC(N5CCCC6(CCC(n7nc(N8CCCc9cc(-c%10cnn(C)c%10)c(C(F)F)cc98)c8c7CCN(C(C)=O)C8)CC6)C5)C4)cc3)C2(C)C)ccc1C#N` (centres unmarked) [Compound 416, 4-[3-[9-[5-acetyl-3-[7-(difluoromethyl)-6-(1-methylpyrazol-4-yl)-3,4-dihydro-2H-quinolin-1-yl]-6,7-dihydro-4Hpyrazolo[4,3-c]pyridin-1-yl]-2-azaspiro[5.5]undecan-2-yl]azetidin-1-yl]-N-[3-(4-cyano-3-methoxy-phenoxy)-2,2,4,4-tetramethyl-cyclobutyl]benzamide], the EC50 fell in the range of 1 to 10 nM.

Take `CC(=O)N1CCc2c(c(Nc3ccc(-c4cnn(C)c4)cc3F)nn2C2CCN(C3CCN(c4ncc(C(=O)NC5C(C)(C)C(Oc6ccc(C#N)c(Cl)c6)C5(C)C)cn4)CC3)C2)C1` (centres unmarked) [Compound 8, 2-[4-[3-[5-acetyl-3-[2-fluoro-4-(1-methylpyrazol-4-yl)anilino]-6,7-dihydro-4H-pyrazolo[4,3-c]pyridin-1-yl]pyrrolidin-1-yl]-1-piperidyl]-N-[3-(3-chloro-4-cyano-phenoxy)-2,2,4,4-tetramethyl-cyclobutyl]pyrimidine-5-carboxamide]: the EC50 was above 100 nM. `COc1cc(OC2C(C)(C)C(NC(=O)c3ccc(N4CC(C)C(CN5CCC(n6nc(-c7cccc8cc(-c9cnn(C)c9)ncc78)c7c6CCN(C(C)=O)C7)CC5)C(C)C4)cc3)C2(C)C)ccc1C#N` (centres unmarked) [Compound 441, 4-[4-[[4-[5-acetyl-3-[3-(1-methylpyrazol-4-yl)-8-isoquinolyl]-6,7-dihydro-4H-pyrazolo[4,3-c]pyridin-1-yl]-1-piperidyl]methyl]-3,5-dimethyl-1-piperidyl]-N-[3-(4-cyano-3-methoxy-phenoxy)-2,2,4,4-tetramethyl-cyclobutyl]benzamide] had an EC50 below 1 nM.
